Structures are written as SMILES.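 Values below derive from 48-hour exposures of cells grown in 96-well plates, with endpoints linearly interpolated between the two concentrations bracketing the appropriate inhibition level. GI50 is the concentration that inhibits growth by half.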 Calls of active or inactive are those of the source. Rule as the data show it: active = GI50 up to about 1.1 µM and inactive = higher.

Holding throughout (experiment): NCI tumour cell line growth inhibition, 48 h
Assay [1] concerns SNB-75.
The subject of assay [2] is NCI-H226.
In assay [3] the test system is Malme-3M.
In assay [4] the test system is NCI/ADR-RES.
Assay [5] concerns KM12.
For assay [6], the system named is UO-31.
Assay [7] concerns RXF 393.
Assay [8] deals with MDA-MB-231.
The subject of assay [9] is MDA-MB-435.
Assay [10] has as its system SK-OV-3.
In assay [11] the test system is NCI-H522.
Assay [12] relates to NCI-H23.
Assay [13] deals with UACC-257.
Assay [14] concerns SR.
Assay [15] relates to HCC 2998.
Assay [16] concerns A549.
Assay [17] relates to SK-MEL-2.
Assay [18] concerns MCF7.
In assay [19] the test system is BT-549.
Assay [20] relates to MOLT-4.

For `O=C(O)C1(Cc2ccccc2)Cc2cc3c(cc2C1)CCC3`, the GI50 is > 100 µM (inactive) in [1]; > 100 µM (inactive) in assay [2]; > 100 µM (inactive) in assay [3]; 89.3 µM (inactive) in assay [4]; 68.4 µM (inactive) in assay [5]; 95.3 µM (inactive) in [6]. Besides, the GI50 in assay [7], in assay [8], in [9], in assay [10], in [11] and in [12] was > 100 µM (inactive) each time. Moreover, the GI50 is > 100 µM (inactive) in assay [13]; > 100 µM (inactive) in assay [14]; 58.2 µM (inactive) in assay [15]; 51.4 µM (inactive) in [16]; 82 µM (inactive) in [17]; > 100 µM (inactive) in assay [18]. The GI50 in assay [19] and in assay [20] was > 100 µM (inactive) in each case.

Take `c1c[nH]c(-c2cccc3nsnc23)c1`: the GI50 in [1] is 49.4 µM (inactive); in [2], > 100 µM (inactive); in assay [3], > 100 µM (inactive); in [4], > 100 µM (inactive); in [5], 30.8 µM (inactive); in assay [6] it was 44.6 µM (inactive). Moreover, the GI50 in assay [7] was 38.1 µM (inactive); in assay [8], 99.3 µM (inactive); in assay [9], > 100 µM (inactive); in [10], > 100 µM (inactive); in [11] it was > 100 µM (inactive); in [12], > 100 µM (inactive). Besides, the GI50 in [13] was > 100 µM (inactive); in [14], 25.1 µM (inactive); in assay [15], > 100 µM (inactive); in assay [16] it was 72.3 µM (inactive); in assay [17] it was > 100 µM (inactive); in assay [18], 6.7 µM (inactive). For the same compound, the GI50 in assay [19] is > 100 µM (inactive); in [20] it was 40.7 µM (inactive).

Take `O=C(Nc1ccccc1)N(CCN(Cc1ccccc1)C(=O)Nc1ccccc1)CCN(Nc1ccccc1)C(=O)Nc1ccccc1`: the GI50 in [1], in assay [2], in assay [3], in assay [4], in [5] and in assay [6] was > 100 µM (inactive) in each case. Besides, the GI50 in assay [7], in assay [8], in assay [9], in assay [10], in assay [11] and in assay [12] was > 100 µM (inactive) throughout. For the same compound, the GI50 in [13], in assay [14], in assay [15], in assay [16], in assay [17] and in assay [18] was > 100 µM (inactive) throughout. Also, the GI50 in assay [19] and in [20] was > 100 µM (inactive) in each case.

Regarding `O=C(O)C(O)C(O)C(O)C(=O)CO` (stereo not given), the GI50 in assay [1], in assay [2], in assay [3], in [4], in assay [5] and in [6] was > 100 µM (inactive) each time. The GI50 in assay [7], in assay [8], in assay [9], in assay [10], in assay [11] and in assay [12] was > 100 µM (inactive) each time. Also, the GI50 in assay [13], in [14], in [15], in assay [16], in [17] and in [18] was > 100 µM (inactive) throughout. Also, the GI50 in [19] and in assay [20] was > 100 µM (inactive) in each case.

On to `COc1ccc(C[C@@H]2NC[C@@H](O)[C@@H]2OC(C)=O)cc1`, for which the GI50 was 0.0132 µM (active) in assay [1]; 0.0358 µM (active) in [2]; 0.0385 µM (active) in assay [3]; 0.0001 µM (active) in [4]; 0.027 µM (active) in assay [5]; 0.0247 µM (active) in [6]. The GI50 in [7] was 0.00641 µM (active); in [8], 0.0196 µM (active); in assay [9] it was 0.0168 µM (active); in assay [10], 0.0169 µM (active); in assay [11], 0.0232 µM (active); in assay [12] it was 0.021 µM (active). Moreover, the GI50 in assay [13] is 0.0228 µM (active); in assay [14], 0.0164 µM (active); in assay [15], 0.0208 µM (active); in [16] it was 0.0316 µM (active); in assay [17], 0.039 µM (active); in [18], 0.0135 µM (active). Moreover, the results for the GI50 in [19] and in [20] were 0.0329 µM (active) and 0.0105 µM (active), respectively.

Consider `CC(=O)O[C@H]1C(=O)[C@@]2(C)[C@H]([C@H](OC(=O)c3ccoc3)[C@]3(O)C[C@H](OC(=O)[C@H](O)[C@@H](NC(=O)c4ccccc4)c4ccccc4)C(C)=C1C3(C)C)[C@]1(OC(C)=O)CO[C@@H]1C[C@@H]2O`, for which the GI50 in assay [1] is 0.141 µM (active); in assay [2], 0.11 µM (active); in assay [3], 0.0316 µM (active); in assay [4] it was > 10.9 µM (inactive); in [5], 0.0344 µM (active); in assay [6], > 8.91 µM (inactive). In addition, the GI50 was 0.277 µM (active) in assay [7]; 3.05 µM (inactive) in assay [8]; 0.00456 µM (active) in assay [9]; 0.0578 µM (active) in assay [10]; 0.0434 µM (active) in assay [11]; > 12.5 µM (inactive) in assay [12]. Moreover, the GI50 in [13] is 0.538 µM (active); in assay [14], 0.026 µM (active); in [15] it was 0.116 µM (active); in assay [16] it was 0.115 µM (active); in assay [17], 0.0448 µM (active); in assay [18], 0.0138 µM (active). The GI50 in [19] was 0.615 µM (active); in assay [20], 0.045 µM (active).

As for `O=c1[nH]c2nc3ccccc3c(=O)n2/c1=C/c1ccccc1`, the GI50 in [1] was 30.5 µM (inactive); in [2], 18.7 µM (inactive); in assay [3], 38.6 µM (inactive); in [4], 43.6 µM (inactive); in assay [5], 38.5 µM (inactive); in [6], 78 µM (inactive). Further, the GI50 is 55 µM (inactive) in [7]; > 100 µM (inactive) in assay [8]; 21.9 µM (inactive) in [9]; > 100 µM (inactive) in assay [10]; 17.1 µM (inactive) in assay [11]; 30.3 µM (inactive) in assay [12]. Also, the GI50 in [13] was 23.7 µM (inactive); in assay [14], > 100 µM (inactive); in [15] it was 31 µM (inactive); in assay [16], > 100 µM (inactive); in assay [17], > 100 µM (inactive); in assay [18] it was 44.2 µM (inactive). The GI50 in assay [19] was 17.1 µM (inactive); in assay [20], 95.5 µM (inactive).

Consider `CC(C)(C)OC(=O)NC1CC2(C=C(Br)C(=O)C(Br)=C2)OC1=O` (stereo not given), for which the GI50 in [1] is 21.5 µM (inactive); in [2] it was 18.1 µM (inactive); in assay [3], 6.24 µM (inactive); in [4], 14.8 µM (inactive); in assay [5], 20.9 µM (inactive); in assay [6], 5.27 µM (inactive). Moreover, the GI50 in [7] is 3.58 µM (inactive); in assay [8], 17.7 µM (inactive); in [9], 7.71 µM (inactive); in assay [10], 17.3 µM (inactive); in assay [11], 1.73 µM (inactive); in assay [12], 7.85 µM (inactive). The GI50 in assay [13] is 5.4 µM (inactive); in assay [14] it was 0.955 µM (active); in assay [15], 11.6 µM (inactive); in [16], 20.2 µM (inactive); in [17] it was 16 µM (inactive); in assay [18], 11.6 µM (inactive). Moreover, the GI50 in assay [19] was 16.5 µM (inactive); in assay [20], 0.401 µM (active).

On to `O=c1ssc(Cl)c1Nc1c(Cl)ssc1=O`, for which the GI50 in [1] is 25.9 µM (inactive); in assay [2], 28.4 µM (inactive); in assay [3] it was 17.9 µM (inactive); in [4], 27.2 µM (inactive); in assay [5] it was 17.3 µM (inactive); in assay [6] it was 14.4 µM (inactive). Moreover, the GI50 in assay [7] is 15 µM (inactive); in assay [8] it was 22.3 µM (inactive); in assay [9], 18 µM (inactive); in [10], 25.9 µM (inactive); in [11] it was 19.6 µM (inactive); in assay [12] it was 19.9 µM (inactive). The GI50 was 16.5 µM (inactive) in assay [13]; 3.62 µM (inactive) in assay [14]; 22.3 µM (inactive) in assay [15]; 21.7 µM (inactive) in assay [16]; 19.4 µM (inactive) in assay [17]; 24.3 µM (inactive) in assay [18]. The figures for the GI50 in assay [19] and in [20] were 18.7 µM (inactive) and 2.25 µM (inactive), respectively.

Regarding `C/C=C/C(O)P(=O)(OC)OC` (stereo not given), the GI50 was 0.312 µM (active) in assay [1]; 0.332 µM (active) in [2]; 0.296 µM (active) in [3]; 0.473 µM (active) in assay [4]; 0.278 µM (active) in [5]; 0.164 µM (active) in [6]. In addition, the GI50 in assay [7] was 0.215 µM (active); in [8], 0.428 µM (active); in [9] it was 0.267 µM (active); in [10] it was 1.03 µM (active); in assay [11] it was 0.214 µM (active); in assay [12], 0.307 µM (active). Also, the GI50 in assay [13] is 0.256 µM (active); in assay [14] it was 0.257 µM (active); in assay [15], 0.27 µM (active); in [16], 0.274 µM (active); in [17], 0.324 µM (active); in [18], 0.269 µM (active). The figures for the GI50 in assay [19] and in [20] were 0.594 µM (active) and 0.3 µM (active), respectively.

For the origin of these results see ChEMBL document CHEMBL1201862, “PubChem BioAssay data set” (2004).
